Measurements reported in patent publication US20250154686A1, “COMPOUND LIBRARY” (CHUGAI SEIYAKU KABUSHIKI KAISHA, priority 2021, published 2025).

Molecular target: T1, Human Bcl-2 protein (Homo sapiens, UniProt P10415)
T1 construct: purchased Novus Biologicals
Test: Evaluation of binding of compound to Bcl-2 by surface plasmon resonance (SPR), Example 7
Details: for equilibrium dissociation constant compared with compound B2Q045-01: SPR, comparison with B2Q045-01; for binding to Bcl-2 confirmed by SPR: compounds identified by AS-MS (Example 5), individually synthesized
Protocol: A surface plasmon resonance method was used in order to analyze the binding affinity of the compounds synthesized in Example 1 and Example 6, which are shown in Table AK-01, for Bcl-2. The apparatus used was Biacore T200 (GE Healthcare Japan Corp.), and the running buffer used was HBS (10 mM HEPES-NaOH and 150 mM NaCl, pH 7.4) supplemented with 1 mM DTT, 3 mM EDTA, 0.01% Tween 20 and 4% DMSO. Human Bcl-2 protein (Novus Biologicals) was biotinylated using EZ-Link Sulfo-NHS-LC-LC-biotin (Thermo Fisher scientific Inc.) and immobilized on the surface of Sensor Chip SA (GE Healthcare Japan Corp.). Then, compound solutions having a plurality of concentrations and the running buffer (blank) were added to the Bcl-2-immobilized surface to obtain the binding response of the compounds. Measurement was performed at 15° C.′.
The obtained sensorgrams were treated with Biacore T200 Evaluation Software, and the equilibrium dissociation constant KD of each compound for Bel-2 was determined as shown in the following Table AK-02 and Table AK-03.

T1 sequence (P10415 whole entry): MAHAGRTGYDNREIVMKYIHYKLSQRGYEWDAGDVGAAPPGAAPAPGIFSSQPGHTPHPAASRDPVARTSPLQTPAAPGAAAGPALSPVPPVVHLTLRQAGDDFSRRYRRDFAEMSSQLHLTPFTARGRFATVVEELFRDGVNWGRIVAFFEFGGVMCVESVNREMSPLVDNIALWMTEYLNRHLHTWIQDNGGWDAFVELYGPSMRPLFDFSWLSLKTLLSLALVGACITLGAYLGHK

binding to Bcl-2 confirmed by SPR	Structure (SMILES)	equilibrium dissociation constant compared with compound B2Q045-01
	CCOc1cncc(-c2ccc(CN3CCN(c4ccc(C(=O)NS(=O)(=O)c5ccc(NCCSc6ccccc6)c([N+](=O)[O-])c5)cc4)CC3)c3ccccc23)c1 [Compound B2Q066-01, 4-[4-[[4-(5-ethoxypyridin-3-yl)naphthalen-1-yl]methyl]piperazin-1-yl]-N-[3-nitro-4-(2-phenylsulfanylethylamino)phenyl]sulfonylbenzamide]	smaller equilibrium dissociation constant Kp
confirmed to bind by SPR	CCOc1cncc(-c2ccc(CN3CCN(c4ccc(C(=O)NS(=O)(=O)c5ccc(NCCSc6ccccc6)c([N+](=O)[O-])c5)cc4)CC3)cc2C)c1 [Compound B2Q048-01, 4-[4-[[4-(5-ethoxypyridin-3-yl)-3-methylphenyl]methyl]piperazin-1-yl]-N-[3-nitro-4-(2-phenylsulfanylethylamino)phenyl]sulfonylbenzamide]	smaller equilibrium dissociation constant Kp
confirmed to bind by SPR	CCOc1cccc(-c2ccc(CN3CCN(c4ccc(C(=O)NS(=O)(=O)c5ccc(NCCSc6ccccc6)c([N+](=O)[O-])c5)cc4)CC3)cc2C)c1 [Compound B2Q047-01, 4-[4-[[4-(3-ethoxyphenyl)-3-methylphenyl]methyl]piperazin-1-yl]-N-[3-nitro-4-(2-phenylsulfanylethylamino)phenyl]sulfonylbenzamide]	smaller equilibrium dissociation constant Kp
